Source: PubChem BioAssay AID248 (DTP/NCI, 2004)
Toxic doses and inconclusive results are not listed. No stated cut-off is given here; in the data, active means T/C of 150% or more; inactive means T/C below 125%.

Test system: L1210 leukemia ip in BDF1 mice, survival T/C
Test: NCI In Vivo Anticancer Drug Screen. Data for tumor model L1210 Leukemia (intraperitoneal) in B6D2F1 (BDF1) mice
Settings: endpoint: mean survival time, higher = longer survival
Method in brief: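 Survival endpoint. Drug-treated group vs vehicle group, expressed as T divided by C. Tumor passaged by transplantation.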

[1] = dose: 100.0 mg/kg/injection, schedule: Q01DX009 (ip), vehicle: saline with Tween-80
[2] = dose: 200.0 mg/kg/injection, schedule: Q01DX009 (ip), vehicle: saline with Tween-80
[3] = dose: 100.0 mg/kg/injection, schedule: Q04DX003 (ip), vehicle: saline with Tween-80
[4] = dose: 200.0 mg/kg/injection, schedule: Q04DX003 (ip), vehicle: saline with Tween-80

Measured: T/C

N#Cc1c(Oc2ccccc2)c(F)c(Oc2ccccc2)c(F)c1Oc1ccccc1
inactive: [1] 100 % of control | [2] 91 % of control | dose: 400.0 mg/kg/injection, schedule: Q01DX009 (ip), vehicle: saline with Tween-80 92 % of control

Cc1ccc(C(=O)CCc2ccccc2)cc1
inactive: dose: 100.0 mg/kg/injection, schedule: Q04DX003 (ip), vehicle: other 92 % of control | dose: 200.0 mg/kg/injection, schedule: Q04DX003 (ip), vehicle: other 91 % of control | dose: 400.0 mg/kg/injection, schedule: Q04DX003 (ip), vehicle: other 94 % of control

NC(CS(=O)c1ccc(Cl)cc1)C(=O)O (stereo unspecified)
inactive: [3] 97 % of control | [4] 92 % of control

CC(C)=CCOC1=CC(=O)C(=O)c2ccccc21
inactive: dose: 25.0 mg/kg/injection, schedule: Q04DX002 (ip), vehicle: saline with Tween-80 87 % of control | dose: 25.0 mg/kg/injection, schedule: Q04DX003 (ip), vehicle: saline with Tween-80 94 % of control | dose: 50.0 mg/kg/injection, schedule: Q04DX002 (ip), vehicle: saline with Tween-80 95 % of control | dose: 50.0 mg/kg/injection, schedule: Q04DX003 (ip), vehicle: saline with Tween-80 93 % of control | dose: 100.0 mg/kg/injection, schedule: Q04DX002 (ip), vehicle: saline with Tween-80 95 % of control | [3] 99 % of control

CNc1ncnc2c1c(Br)cn2C1OC(CO)C(O)C1O (stereo unspecified)
inactive: dose: 5.0 mg/kg/injection, schedule: Q01DX001 (ip), vehicle: saline 104 % of control | dose: 10.0 mg/kg/injection, schedule: Q01DX001 (ip), vehicle: saline 104 % of control | dose: 20.0 mg/kg/injection, schedule: Q01DX001 (ip), vehicle: saline 104 % of control

CCOC(=Nc1ccccc1)c1ccccc1
inactive: dose: 100.0 mg/kg/injection, schedule: Q01DX009 (ip), vehicle: Klucel (hydroxypropylcellulose) (HPC) 104 % of control | dose: 200.0 mg/kg/injection, schedule: Q01DX009 (ip), vehicle: Klucel (hydroxypropylcellulose) (HPC) 100 % of control | dose: 400.0 mg/kg/injection, schedule: Q01DX009 (ip), vehicle: Klucel (hydroxypropylcellulose) (HPC) 102 % of control

CC(C)=CCNc1ncnc2c1c(C(N)=O)cn2C1OC(CO)C(O)C1O (stereo unspecified)
inactive: dose: 100.0 mg/kg/injection, schedule: Q01DX005 (ip), vehicle: saline 107 % of control | dose: 200.0 mg/kg/injection, schedule: Q01DX005 (ip), vehicle: saline 123 % of control

CCC(=O)OC/C=C/c1ccccc1
inactive: dose: 100.0 mg/kg/injection, schedule: Q01DX009 (ip), vehicle: saline 95 % of control | dose: 100.0 mg/kg/injection, schedule: Q04DX003 (ip), vehicle: alcohol 100 % of control | dose: 200.0 mg/kg/injection, schedule: Q01DX009 (ip), vehicle: saline 102 % of control | dose: 200.0 mg/kg/injection, schedule: Q04DX003 (ip), vehicle: alcohol 98 % of control | dose: 400.0 mg/kg/injection, schedule: Q01DX009 (ip), vehicle: saline 95 % of control | dose: 400.0 mg/kg/injection, schedule: Q04DX003 (ip), vehicle: alcohol 94 % of control

Cc1ccc(-n2c(=O)c(N=Nc3ccc(Br)cc3)c(O)n(-c3ccccc3Cl)c2=S)cc1
inactive: dose: 37.5 mg/kg/injection, schedule: Q01DX001 (ip), vehicle: Klucel (hydroxypropylcellulose) (HPC) 107 % of control | dose: 75.0 mg/kg/injection, schedule: Q01DX001 (ip), vehicle: Klucel (hydroxypropylcellulose) (HPC) 110 % of control | dose: 150.0 mg/kg/injection, schedule: Q01DX001 (ip), vehicle: Klucel (hydroxypropylcellulose) (HPC) 104 % of control

CC1CC=C(C2CC(C)CC(N(C)C)C2=N)CC1 (stereo unspecified)
inactive: dose: 100.0 mg/kg/injection, schedule: Q01DX009 (sc), vehicle: olive oil, sesame oil, peanut oil 101 % of control | dose: 100.0 mg/kg/injection, schedule: Q04DX003 (sc), vehicle: olive oil, sesame oil, peanut oil 108 % of control | dose: 200.0 mg/kg/injection, schedule: Q01DX009 (sc), vehicle: olive oil, sesame oil, peanut oil 92 % of control | dose: 200.0 mg/kg/injection, schedule: Q04DX003 (sc), vehicle: olive oil, sesame oil, peanut oil 103 % of control | dose: 400.0 mg/kg/injection, schedule: Q04DX003 (sc), vehicle: olive oil, sesame oil, peanut oil 106 % of control

O/N=C(/CN1CCCCC1)c1ccccc1
inactive: [3] 95 % of control | [4] 98 % of control | dose: 400.0 mg/kg/injection, schedule: Q04DX003 (ip), vehicle: saline with Tween-80 104 % of control

O=C(Sc1ccc([N+](=O)[O-])cc1)C(=O)Sc1ccc([N+](=O)[O-])cc1
inactive: [1] 87 % of control | [2] 97 % of control
